Source: patent US4673747A, “Aminoalkylphenoxy derivatives” (Ikeda Mohando Co., Ltd., priority 1984, dated 1987)
Where two headings read alike, the source gives them in different places.

Legend:
[1] = system: Gastric acid secretion induced by histamine; test: Inhibition effect on gastric acid secretion induced by histamine in pylorus ligated rat (subcutaneous); format: in vivo, rat (male Wistar); details: read-out: Secretion of Gastric Acid in Rat, Inhibition Rate (%)
Experimental: A male Wistar rat having a body weight of about 160 g and which had not fed for 24 hours was anesthetized by an intraperitonea dose of 1.2 g/kg of uretane. After ligating of pylorus and esophagus, the gaster anterior was incised and fitted with a double polyethylene cannula. The wall of the stomach was rinsed with 5 ml of saline at 30 minute intervals, and the quantities of gastric acid contained in each rinsing solution were measured by titration.
The basal acid secretion was initially measured three times, and then 0.2 mg/kg or 0.5 mg/kg of each of the compounds of this invention was administered subcutaneously and 3 mg/kg of histamine was administered subcutaneously after the lapse of an additional 30 minutes.
The quantity of gastric acid secreated after the operation was measured continuously for 3 hours. Within that measurement interval, three time points at which the increase in acid secretion reached a maximum level were selected, and the average quantity of gastric acid secreted at those time points was taken as the increase in acid secretion, which was compared with the increase in acid secretion of the control group to calculate the percent inhibition for secretion of gastric acid. [formula] (The result was shown as the average value of five runs.)

[2] = system: Gastric acid secretion induced by histamine; test: Inhibitory effect of intraduodenally administered compounds on gastric acid secretion induced by histamine in rat; format: in vivo, rat (male Wistar); details: for ED50: 0.5 h, read-out: Median effective dose (ED50), Gastric Acid Secretion; for Efficacy Ratio relative to Cimetidine (Cimetidine = 1): from ED50; for ED50 value: times as effective as Cimetidine (activity ratio): text discussing Table 2
[3] = Acute toxicity test on mice dosed orally; parameters: species or system mouse (male ddy); details: mouse, in vivo, po, P.O., 14 days observation, read-out: Median lethal dose (LD50)
Experimental: Male ddy mice each having a body weight of about 22 g and which had not eaten for 8 hours were orally dosed with the test samples, and the general symptoms and fatalities were observed from the time immediately following the administration to 14 days after the administration.
The median lethal dose (LD50) was calculated in accordance with the Litchfield and Wilcoxon Method.

[4] = target: T1, Histamine H2-Receptor (Cavia porcellus, UniProt P47747); parameters: species or system guinea pig (male Hartley); details: isolated guinea pig atrium; negative logarithm of molar concentration; heart beats, histamine dose-response; read-out: Antagonistic Action against Histamine H2-Receptor (pA2) Determined by Using Atrium isolated from Guinea Pig (converted)
T1 construct: from tissue; host or cells: isolated atrium of male Hartley guinea pig
Experimental: A male Hartley guinea pig having a body weight of about 400 g was killed by cervical dislocation, and the artrium thereof was isolated and was suspended in an organ bath containing 50 ml of a modified Ringer solution and subjected to a tension of 1 g. The number of heart beats under such condition was recorded using a polygraph.
Initially, from 1×10^-7 mol to 3×10^-4 mol of histamine was allowed to act accumulatively to depict the curve of the dosage-reaction relationship. Likewise, the curve of the dosage of histamine-reaction relationship was depicted in the presence of 5×10^-7 mol to 1×10^-6 mol of the test sample which was injected 3 minutes before. The negative logarithm (pA2) of the molar concentration of the test sample required for moving the curve obtained by single administration of histamine parallel to the right side by a two-times concentration was calculated.

[5] = 0.5 mg/kg SC, histamine 3 mg/kg SC, average of five runs, * p<0.05, ** p<0.01 vs control group
[6] = intraduodenal, 30 minutes before SC histamine, rat

T1 sequence (P47747 whole entry): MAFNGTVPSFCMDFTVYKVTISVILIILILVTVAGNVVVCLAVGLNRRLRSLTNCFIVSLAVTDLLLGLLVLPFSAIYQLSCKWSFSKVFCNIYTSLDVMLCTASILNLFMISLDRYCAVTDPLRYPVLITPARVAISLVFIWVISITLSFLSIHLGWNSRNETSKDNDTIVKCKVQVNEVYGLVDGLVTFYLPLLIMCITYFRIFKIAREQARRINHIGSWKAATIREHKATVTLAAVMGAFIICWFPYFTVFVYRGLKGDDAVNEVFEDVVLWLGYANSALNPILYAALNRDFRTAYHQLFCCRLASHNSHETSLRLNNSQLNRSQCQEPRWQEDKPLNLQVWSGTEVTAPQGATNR

Row | SMILES | inhibition in vivo at 0.5 mg/kg ([1]; sc) | ED50 ([2]; Rattus norvegicus) | LD50 at 336 h [3] | inhibition in vivo at 0.5 mg/kg [1, 5] | Kb [4] | ED50 [2, 6] | Efficacy Ratio relative to Cimetidine (Cimetidine = 1) ([2]; intraduodenal, rat) | ED50 value: times as effective as Cimetidine (activity ratio) ([2]; intraduodenal, rat) | inhibition in vivo at 0.2 mg/kg ([1]; 0.2 mg/kg SC, histamine 3 mg/kg SC, average of five runs, * p<0.05, ** p<0.01 vs control group)
1 | CN/C(=N/CCSCc1nc[nH]c1C)NC#N [Cimetidine, reference compound] | 41% | 7.2 mg/kg | 3300 mg/kg | – | – | – | – | – | –
2 | Nc1c(NC/C=C\COc2cccc(CN3CCCCC3)c2)c(=O)c1=O [Ex. 2, 1-amino-2-[4-<3-(1-piperidinomethyl)phenoxy>-cis-2-butenylamino]-1-cyclobuten-3,4-dione] | – | – | > 1500 mg/kg | 98% | 63.1 nM | 0.046 mg/kg | 156.5 | about 157 times | –
3 | CNc1c(NC/C=C\COc2cccc(CN3CCCCC3)c2)c(=O)c1=O [Ex. 3, 1-methylamino-2-[4-<3-(1-piperidinomethyl)phenoxy>-cis-2-butenylamino]-cyclobuten-3,4-dione] | – | – | > 1500 mg/kg | 79% | 309 nM | 0.036 mg/kg | 200.0 | ~200 times | –
4 | Nc1n[nH]c(=O)nc1NC/C=C\COc1cccc(CN2CCCCC2)c1 [Ex. 9, 6-amino-5-[4-<3-(1-piperidinomethyl)phenoxy>-cis-2-butenylamino]-1,2,4-triazin-3-one] | – | – | 1200 mg/kg | 96% | 186 nM | – | – | – | –
5 | CNc1n[nH]c(=O)nc1NC/C=C\COc1cccc(CN2CCCCC2)c1 [Ex. 10, 6-methylamino-5-[4-<3-(1-piperidinomethyl)phenoxy>-cis-2-butenylamino]-1,2,4-triazin-3-one] | – | – | > 1500 mg/kg | 103% | 219 nM | 8 mg/kg | 0.9 | – | –
6 | Nc1cc(NC/C=C\COc2cccc(CN3CCCCC3)c2)nc(=O)[nH]1 [Ex. 13, 4-amino-6-[4-<3-(1-piperidinomethyl)phenoxy>-cis-2-butenylamino]-(1H)-pyrimidin-2-one] | – | – | > 1500 mg/kg | 91% | 83.2 nM | 0.52 mg/kg | 13.8 | – | –
7 | CNc1n[s+]([O-])nc1NC/C=C\COc1cccc(CN2CCCCC2)c1 (stereo not drawn) [Ex. 16, 3-methylamino-4-[4-<3-(1-piperidinomethyl)phenoxy>-cis-2-butenylamino]-1,2,5-thiadiazole-1-oxide] | – | – | > 1500 mg/kg | 98% | 2400 nM | 0.04 mg/kg | 180.0 | ~180 times | –
8 | O=c1c(NC/C=C\COc2cccc(CN3CCCCC3)c2)c(NCc2ccncc2)c1=O [Ex. 38] | – | – | – | – | 589 nM | 0.04 mg/kg | 180.0 | – | 98%
